The text below walks through data of article PMC3165048 (Chemistry & biology, 2010).

In the test the test system is M. tuberculosis knock-in strains overexpressing MtMetAP1a or MtMetAP1c, wild-type and control strains. It is filed as cell-based, M. tuberculosis CDC1551.

For the compound `O=C1C(Cl)=C(Cl)C(=O)c2ccccc21` [Compound 4, 2,3-dichloro-1,4-naphthoquinone], the “Growth of MtMetAP1a knock-in strain in the presence of inhibitor” value was “gained resistance”; the “Growth of MtMetAP1c knock-in strain in the presence of inhibitor” value was “gained resistance”; the “Growth of wild-type and control M. tuberculosis strains in the presence of inhibitor” value is listed as “inhibited”.
